Source: the kinase profiling compilation of Christmann-Franck et al. (2016)

Legend:
Assay in all cases: KINOMEscan competition binding
Conditions in all cases: compound 10.0 µM
ACVR2A (human) = ACVR2A (human) (UniProt P27037)
ACVRL1 (human) = ACVRL1 (human) (UniProt P37023)
AKT1 (human) = AKT1 (human) (UniProt P31749)
BRSK2 (human) = BRSK2 (human) (UniProt Q8IWQ3)
CDC42BPG (human) = CDC42BPG (human) (UniProt Q6DT37)
CSK (human) = CSK (human) (UniProt P41240)
ERBB4 (human) = ERBB4 (human) (UniProt Q15303)
FGR (human) = FGR (human) (UniProt P09769)
IGF1R (human) = IGF1R (human) (UniProt P08069)
IKBKE (human) = IKBKE (human) (UniProt Q14164)
INSR (human) = INSR (human) (UniProt P06213)
[1] = molecular target: JAK1 JH2 pseudokinase (human) (UniProt P23458)
[2] = molecular target: JAK2 JH1 catalytic (human) (UniProt O60674)
[3] = molecular target: JAK3 JH1 catalytic (human) (UniProt P52333)
MAP2K4 (human) = MAP2K4 (human) (UniProt P45985)
MAPK15 (human) = MAPK15 (human) (UniProt Q8TD08)
MAPK6 (human) = MAPK6 (human) (UniProt Q16659)
MELK (human) = MELK (human) (UniProt Q14680)
MST4 (human) = MST4 (human) (UniProt Q9P289)
NEK6 (human) = NEK6 (human) (UniProt Q9HC98)
NEK7 (human) = NEK7 (human) (UniProt Q8TDX7)
NTRK1 (human) = NTRK1 (human) (UniProt P04629)
NUAK1 (human) = NUAK1 (human) (UniProt O60285)
PAK7 (human) = PAK7 (human) (UniProt Q9P286)
PDGFRA (human) = PDGFRA (human) (UniProt P16234)
PHKG1 (human) = PHKG1 (human) (UniProt Q16816)
PIK3C2B (human) = PIK3C2B (human) (UniProt O00750)
PIK3CB (human) = PIK3CB (human) (UniProt P42338)
PRKCD (human) = PRKCD (human) (UniProt Q05655)
PRKCQ (human) = PRKCQ (human) (UniProt Q04759)
PRKG2 (human) = PRKG2 (human) (UniProt Q13237)
RAF1 (human) = RAF1 (human) (UniProt P04049)
RIPK2 (human) = RIPK2 (human) (UniProt O43353)
STK3 (human) = STK3 (human) (UniProt Q13188)
STK36 (human) = STK36 (human) (UniProt Q9NRP7)
TEK (human) = TEK (human) (UniProt Q02763)
TLK1 (human) = TLK1 (human) (UniProt Q9UKI8)
TNIK (human) = TNIK (human) (UniProt Q9UKE5)
WEE1 (human) = WEE1 (human) (UniProt P30291)
ZAP70 (human) = ZAP70 (human) (UniProt P43403)

Sequence of NEK7 (human) (Q8TDX7 whole entry, looked up): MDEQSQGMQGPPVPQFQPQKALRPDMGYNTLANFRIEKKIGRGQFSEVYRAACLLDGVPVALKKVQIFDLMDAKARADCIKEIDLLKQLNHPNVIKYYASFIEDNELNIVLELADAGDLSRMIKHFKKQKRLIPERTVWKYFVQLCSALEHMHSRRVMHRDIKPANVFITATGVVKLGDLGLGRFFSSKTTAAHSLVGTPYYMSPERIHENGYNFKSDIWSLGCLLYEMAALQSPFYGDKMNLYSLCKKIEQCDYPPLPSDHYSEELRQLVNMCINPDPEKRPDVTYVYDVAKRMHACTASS
Sequence of PAK7 (human) (Q9P286 whole entry, looked up): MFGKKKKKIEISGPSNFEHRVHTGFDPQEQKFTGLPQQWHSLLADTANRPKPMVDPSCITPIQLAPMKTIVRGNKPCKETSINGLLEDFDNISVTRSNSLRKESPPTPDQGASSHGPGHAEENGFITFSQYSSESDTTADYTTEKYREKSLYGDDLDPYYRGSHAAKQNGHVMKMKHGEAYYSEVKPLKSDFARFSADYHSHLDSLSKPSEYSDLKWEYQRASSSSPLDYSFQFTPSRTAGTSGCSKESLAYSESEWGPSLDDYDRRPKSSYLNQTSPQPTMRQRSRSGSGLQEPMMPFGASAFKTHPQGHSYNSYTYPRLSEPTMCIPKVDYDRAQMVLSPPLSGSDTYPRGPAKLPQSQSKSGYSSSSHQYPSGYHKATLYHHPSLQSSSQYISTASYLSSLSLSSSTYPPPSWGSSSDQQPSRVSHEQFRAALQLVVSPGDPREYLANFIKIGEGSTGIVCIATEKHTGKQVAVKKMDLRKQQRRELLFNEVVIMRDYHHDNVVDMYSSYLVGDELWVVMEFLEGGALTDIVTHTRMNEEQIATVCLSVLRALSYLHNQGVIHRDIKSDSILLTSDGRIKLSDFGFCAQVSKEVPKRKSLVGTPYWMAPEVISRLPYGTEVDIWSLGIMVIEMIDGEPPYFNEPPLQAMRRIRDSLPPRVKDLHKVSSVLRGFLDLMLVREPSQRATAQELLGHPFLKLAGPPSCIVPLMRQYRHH
Sequence of MAPK15 (human) (Q8TD08 whole entry, looked up): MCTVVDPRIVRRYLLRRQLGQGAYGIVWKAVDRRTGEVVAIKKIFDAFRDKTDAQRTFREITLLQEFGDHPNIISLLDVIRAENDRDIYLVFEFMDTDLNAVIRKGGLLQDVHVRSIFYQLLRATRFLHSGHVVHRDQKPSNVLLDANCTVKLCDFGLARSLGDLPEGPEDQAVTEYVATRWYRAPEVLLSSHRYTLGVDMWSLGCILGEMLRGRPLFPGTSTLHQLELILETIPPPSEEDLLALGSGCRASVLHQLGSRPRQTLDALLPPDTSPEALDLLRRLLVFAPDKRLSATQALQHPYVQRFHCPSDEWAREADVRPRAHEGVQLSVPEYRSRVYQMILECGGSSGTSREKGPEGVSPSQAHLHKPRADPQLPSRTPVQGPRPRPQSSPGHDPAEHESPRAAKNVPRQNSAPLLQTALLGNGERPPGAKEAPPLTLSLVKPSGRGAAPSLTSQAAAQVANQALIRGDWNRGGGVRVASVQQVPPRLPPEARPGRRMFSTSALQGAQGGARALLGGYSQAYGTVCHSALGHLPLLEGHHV
Sequence of IKBKE (human) (Q14164 whole entry, looked up): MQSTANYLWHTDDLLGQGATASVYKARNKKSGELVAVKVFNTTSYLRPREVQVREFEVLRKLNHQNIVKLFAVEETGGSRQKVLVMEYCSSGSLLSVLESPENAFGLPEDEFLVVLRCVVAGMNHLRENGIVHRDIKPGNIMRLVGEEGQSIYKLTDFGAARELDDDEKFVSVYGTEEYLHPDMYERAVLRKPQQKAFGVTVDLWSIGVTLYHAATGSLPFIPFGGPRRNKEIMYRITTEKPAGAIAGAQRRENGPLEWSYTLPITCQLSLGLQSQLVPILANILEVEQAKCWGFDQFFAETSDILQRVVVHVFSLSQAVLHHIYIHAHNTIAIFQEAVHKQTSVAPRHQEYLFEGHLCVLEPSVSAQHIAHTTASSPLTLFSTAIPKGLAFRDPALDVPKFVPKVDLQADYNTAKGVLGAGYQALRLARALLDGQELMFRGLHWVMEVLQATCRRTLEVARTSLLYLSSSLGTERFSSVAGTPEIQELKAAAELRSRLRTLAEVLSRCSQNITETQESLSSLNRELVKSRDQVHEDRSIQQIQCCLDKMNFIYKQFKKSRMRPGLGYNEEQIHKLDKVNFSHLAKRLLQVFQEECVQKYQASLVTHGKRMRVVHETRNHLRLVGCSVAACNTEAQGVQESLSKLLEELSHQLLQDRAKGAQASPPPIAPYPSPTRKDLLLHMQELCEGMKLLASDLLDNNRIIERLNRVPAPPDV
Sequence of MAP2K4 (human) (P45985 whole entry, looked up): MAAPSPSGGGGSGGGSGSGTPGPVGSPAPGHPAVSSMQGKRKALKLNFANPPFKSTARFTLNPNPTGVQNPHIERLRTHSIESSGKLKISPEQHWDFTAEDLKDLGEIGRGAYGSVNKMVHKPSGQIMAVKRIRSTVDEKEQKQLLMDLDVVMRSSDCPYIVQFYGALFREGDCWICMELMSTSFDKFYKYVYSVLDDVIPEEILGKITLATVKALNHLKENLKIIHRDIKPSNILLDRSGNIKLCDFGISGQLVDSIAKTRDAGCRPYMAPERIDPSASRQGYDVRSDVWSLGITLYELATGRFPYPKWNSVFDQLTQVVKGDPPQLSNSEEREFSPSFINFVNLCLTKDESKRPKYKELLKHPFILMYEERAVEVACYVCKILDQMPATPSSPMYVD
Sequence of NUAK1 (human) (O60285 whole entry, looked up): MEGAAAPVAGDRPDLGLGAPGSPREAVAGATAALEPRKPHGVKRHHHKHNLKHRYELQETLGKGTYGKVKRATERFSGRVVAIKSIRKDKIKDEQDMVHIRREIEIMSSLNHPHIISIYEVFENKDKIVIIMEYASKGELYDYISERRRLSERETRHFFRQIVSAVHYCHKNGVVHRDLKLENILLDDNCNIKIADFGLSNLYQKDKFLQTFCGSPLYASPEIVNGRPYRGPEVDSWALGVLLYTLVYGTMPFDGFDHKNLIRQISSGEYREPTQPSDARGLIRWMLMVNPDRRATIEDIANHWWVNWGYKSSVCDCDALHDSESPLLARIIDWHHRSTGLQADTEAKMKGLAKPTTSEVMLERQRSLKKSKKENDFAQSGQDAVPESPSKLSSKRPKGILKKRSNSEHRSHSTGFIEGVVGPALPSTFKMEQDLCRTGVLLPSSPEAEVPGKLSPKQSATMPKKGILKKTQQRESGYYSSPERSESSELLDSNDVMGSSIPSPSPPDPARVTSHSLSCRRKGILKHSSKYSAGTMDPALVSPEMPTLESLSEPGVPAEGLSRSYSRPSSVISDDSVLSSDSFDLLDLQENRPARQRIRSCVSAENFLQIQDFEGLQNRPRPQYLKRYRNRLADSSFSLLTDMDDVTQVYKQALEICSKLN
Sequence of BRSK2 (human) (Q8IWQ3 whole entry, looked up): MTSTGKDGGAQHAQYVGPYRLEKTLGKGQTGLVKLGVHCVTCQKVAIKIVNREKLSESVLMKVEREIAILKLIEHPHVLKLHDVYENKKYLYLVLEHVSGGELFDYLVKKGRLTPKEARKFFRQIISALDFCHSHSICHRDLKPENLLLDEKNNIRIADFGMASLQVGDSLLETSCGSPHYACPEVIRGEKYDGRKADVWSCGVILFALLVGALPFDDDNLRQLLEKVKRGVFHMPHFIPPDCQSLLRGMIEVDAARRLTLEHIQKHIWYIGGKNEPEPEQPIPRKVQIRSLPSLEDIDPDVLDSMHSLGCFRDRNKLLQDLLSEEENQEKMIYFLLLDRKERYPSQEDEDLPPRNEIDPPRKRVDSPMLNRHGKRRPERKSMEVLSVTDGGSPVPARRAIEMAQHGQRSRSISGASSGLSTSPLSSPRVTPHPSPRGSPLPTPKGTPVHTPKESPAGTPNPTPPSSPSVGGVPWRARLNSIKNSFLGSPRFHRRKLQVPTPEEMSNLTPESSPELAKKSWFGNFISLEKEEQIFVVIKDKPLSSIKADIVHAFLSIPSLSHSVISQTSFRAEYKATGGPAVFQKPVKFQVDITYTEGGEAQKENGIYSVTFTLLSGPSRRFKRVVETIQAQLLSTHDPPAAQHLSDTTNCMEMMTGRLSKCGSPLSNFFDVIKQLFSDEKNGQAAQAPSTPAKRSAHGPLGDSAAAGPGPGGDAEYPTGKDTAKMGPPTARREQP
Sequence of ACVRL1 (human) (P37023 whole entry, looked up): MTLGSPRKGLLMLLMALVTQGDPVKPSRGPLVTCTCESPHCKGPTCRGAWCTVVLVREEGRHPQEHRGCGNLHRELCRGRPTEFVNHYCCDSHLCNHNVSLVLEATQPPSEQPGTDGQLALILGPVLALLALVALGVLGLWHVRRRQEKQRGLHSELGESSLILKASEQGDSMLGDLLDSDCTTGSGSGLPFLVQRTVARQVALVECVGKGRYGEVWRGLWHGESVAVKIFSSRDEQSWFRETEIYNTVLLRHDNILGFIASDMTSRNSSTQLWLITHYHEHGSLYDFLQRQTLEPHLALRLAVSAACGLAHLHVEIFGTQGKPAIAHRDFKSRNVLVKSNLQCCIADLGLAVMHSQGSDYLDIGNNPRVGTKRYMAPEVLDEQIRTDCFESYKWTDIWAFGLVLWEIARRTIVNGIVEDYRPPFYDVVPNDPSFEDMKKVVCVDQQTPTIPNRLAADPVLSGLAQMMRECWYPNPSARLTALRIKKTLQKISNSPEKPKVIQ
Sequence of MST4 (human) (Q9P289 whole entry, looked up): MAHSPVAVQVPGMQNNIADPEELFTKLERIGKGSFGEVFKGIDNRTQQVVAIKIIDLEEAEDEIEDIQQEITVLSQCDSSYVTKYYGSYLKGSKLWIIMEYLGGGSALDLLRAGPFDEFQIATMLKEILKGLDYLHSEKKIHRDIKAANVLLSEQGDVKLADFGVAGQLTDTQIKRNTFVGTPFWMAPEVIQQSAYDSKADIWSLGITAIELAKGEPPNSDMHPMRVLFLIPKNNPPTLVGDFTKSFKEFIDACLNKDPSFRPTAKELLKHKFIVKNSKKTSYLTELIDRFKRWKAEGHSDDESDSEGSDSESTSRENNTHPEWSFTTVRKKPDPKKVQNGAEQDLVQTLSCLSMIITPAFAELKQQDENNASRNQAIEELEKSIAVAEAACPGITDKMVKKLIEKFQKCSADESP

C=CC(=O)Nc1cccc(Nc2nc(N[C@H]3CC[C@H](N(C)C)CC3)nc3c2ncn3C(C)C)c1 was tested, and the kinase still bound, per cent of control (ACVR2A (human)) was 97%, the kinase still bound, per cent of control (ACVRL1 (human)) was 100% and the kinase still bound, per cent of control (AKT1 (human)) was 93%. The kinase still bound, per cent of control (BRSK2 (human)) was 100%, the kinase still bound, per cent of control (CDC42BPG (human)) was 84% and the kinase still bound, per cent of control (CSK (human)) was 90%. It also gave a kinase still bound, per cent of control (ERBB4 (human)) of 76%, a kinase still bound, per cent of control (FGR (human)) of 14% and a kinase still bound, per cent of control (IGF1R (human)) of 87%. For the same compound, the kinase still bound, per cent of control (IKBKE (human)) was 95%, the kinase still bound, per cent of control (INSR (human)) was 69% and the kinase still bound, per cent of control [1] was 76%. For the same compound, the kinase still bound, per cent of control [2] was 9.1%, the kinase still bound, per cent of control [3] was 89% and the kinase still bound, per cent of control (MAP2K4 (human)) was 76%. It also gave a kinase still bound, per cent of control (MAPK15 (human)) of 75%, a kinase still bound, per cent of control (MAPK6 (human)) of 100% and a kinase still bound, per cent of control (MELK (human)) of 25%. For the same compound, the kinase still bound, per cent of control (MST4 (human)) was 16%, the kinase still bound, per cent of control (NEK6 (human)) was 90% and the kinase still bound, per cent of control (NEK7 (human)) was 76%. It also gave a kinase still bound, per cent of control (NTRK1 (human)) of 15%, a kinase still bound, per cent of control (NUAK1 (human)) of 93% and a kinase still bound, per cent of control (PAK7 (human)) of 17%. The kinase still bound, per cent of control (PDGFRA (human)) was 59%, the kinase still bound, per cent of control (PHKG1 (human)) was 57% and the kinase still bound, per cent of control (PIK3C2B (human)) was 100%. It also gave a kinase still bound, per cent of control (PIK3CB (human)) of 100%, a kinase still bound, per cent of control (PRKCD (human)) of 83% and a kinase still bound, per cent of control (PRKCQ (human)) of 3.6%. It also gave a kinase still bound, per cent of control (PRKG2 (human)) of 96%, a kinase still bound, per cent of control (RAF1 (human)) of 100% and a kinase still bound, per cent of control (RIPK2 (human)) of 100%. It also gave a kinase still bound, per cent of control (STK3 (human)) of 57%, a kinase still bound, per cent of control (STK36 (human)) of 100% and a kinase still bound, per cent of control (TEK (human)) of 95%. The kinase still bound, per cent of control (TLK1 (human)) was 100%, the kinase still bound, per cent of control (TNIK (human)) was 35% and the kinase still bound, per cent of control (WEE1 (human)) was 51%. The kinase still bound, per cent of control (ZAP70 (human)) was 77%.
C=CC(=O)Nc1cccc(Oc2nc(Nc3ccc(N4CCN(C)CC4)cc3OC)ncc2Cl)c1 showed a kinase still bound, per cent of control (ACVR2A (human)) of 100%, a kinase still bound, per cent of control (ACVRL1 (human)) of 100% and a kinase still bound, per cent of control (AKT1 (human)) of 100%. The kinase still bound, per cent of control (BRSK2 (human)) was 100%, the kinase still bound, per cent of control (CDC42BPG (human)) was 100% and the kinase still bound, per cent of control (CSK (human)) was 100%. For the same compound, the kinase still bound, per cent of control (ERBB4 (human)) was 0.25%, the kinase still bound, per cent of control (FGR (human)) was 100% and the kinase still bound, per cent of control (IGF1R (human)) was 7.4%. The kinase still bound, per cent of control (IKBKE (human)) was 100%, the kinase still bound, per cent of control (INSR (human)) was 17% and the kinase still bound, per cent of control [1] was 100%. It also gave a kinase still bound, per cent of control [2] of 100%, a kinase still bound, per cent of control [3] of 0.4% and a kinase still bound, per cent of control (MAP2K4 (human)) of 100%. For the same compound, the kinase still bound, per cent of control (MAPK15 (human)) was 100%, the kinase still bound, per cent of control (MAPK6 (human)) was 100% and the kinase still bound, per cent of control (MELK (human)) was 14%. For the same compound, the kinase still bound, per cent of control (MST4 (human)) was 100%, the kinase still bound, per cent of control (NEK6 (human)) was 9% and the kinase still bound, per cent of control (NEK7 (human)) was 12%. The kinase still bound, per cent of control (NTRK1 (human)) was 100%, the kinase still bound, per cent of control (NUAK1 (human)) was 0.65% and the kinase still bound, per cent of control (PAK7 (human)) was 100%. For the same compound, the kinase still bound, per cent of control (PDGFRA (human)) was 100%, the kinase still bound, per cent of control (PHKG1 (human)) was 7.7% and the kinase still bound, per cent of control (PIK3C2B (human)) was 100%. For the same compound, the kinase still bound, per cent of control (PIK3CB (human)) was 100%, the kinase still bound, per cent of control (PRKCD (human)) was 100% and the kinase still bound, per cent of control (PRKCQ (human)) was 100%. It also gave a kinase still bound, per cent of control (PRKG2 (human)) of 100%, a kinase still bound, per cent of control (RAF1 (human)) of 100% and a kinase still bound, per cent of control (RIPK2 (human)) of 100%. For the same compound, the kinase still bound, per cent of control (STK3 (human)) was 100%, the kinase still bound, per cent of control (STK36 (human)) was 100% and the kinase still bound, per cent of control (TEK (human)) was 100%. The kinase still bound, per cent of control (TLK1 (human)) was 100%, the kinase still bound, per cent of control (TNIK (human)) was 100% and the kinase still bound, per cent of control (WEE1 (human)) was 100%. For the same compound, the kinase still bound, per cent of control (ZAP70 (human)) was 100%.
